17 molecules from patent US9051313B2, “Apoptosis signal-regulating kinase inhibitors” (Gilead Sciences, Inc., priority 2012, dated 2015) can be followed below.

pEC50, pIC50: −log10 of the molar value.

Assay [1] deals with recombinant human ASK1 kinase (Homo sapiens (Human), UniProt Q99683). As to the kind of experiment: TR-FRET ASK1 kinase assay (HTRF KinEASE-STK). The format is biochemical. From the text:
Dephosphorylated recombinant human ASK1 kinase was from Gilead Sciences. […] ATP (catalogue # 7724) was from Affymetrix (Santa Clara, Calif.) and test compounds were from Gilead Sciences. HTRF KinEASE™-STK S3 kit was obtained from Cisbio (Bedford, Mass.). All other reagents were of the highest grade commercially available. The assay measures the phosphorylation level of a biotinylated peptide substrate by the ASK1 kinase using HTRF detection (6.1). This is a competitive, time-resolved fluorescence resonance energy transfer (TR-FRET) immunoassay, based on HTRF® KinEASE™-STK manual from Cisbio (6.1). […] Peptide antibody labeled with 1× Eu^3+ Cryptate buffer containing 10 mM EDTA and 125 nM Streptavidin XL665 are added to stop the reaction and phosphorylated peptide substrate is detected using Envision 2103 Multilabeled reader from PerkinElmer. The fluorescence is measured at 615 nm (Cryptate) and 665 nm (XL665) and a ratio of 665 nm/615 nm is calculated for each well. The resulting TR-FRET level (a ratio of 665 nm/615 nm) is proportional to the phosphorylation level. Under these assay conditions, the degree of phosphorylation of peptide substrate was linear with time and concentration for the enzyme. The assay system yielded consistent results with regard to Km and specific activities for the enzyme. For inhibition experiments (IC50 values), activities were performed with constant concentrations of ATP, peptide and several fixed concentrations of inhibitors. […] All enzyme activity data are reported as an average of quadruplicate determination. […] Enzyme activity is expressed as the amount of Phosphate incorporated into substrate peptide from ATP. Range is the maximum y range (no inhibitor, DMSO control) and s is a slope factor (6.2). Results

For assay [2], the target named is ASK1 (kinase active, 631-1381 of rat ASK1 cDNA) in 293/AP1-Luc cells (Rattus norvegicus, UniProt A0A8I6AEL0). Nature of the assay: ASK1 293 cell-based assay (Cellular EC50), AP-1:luciferase reporter. The note with it: 293/AP1-Luc cells infected with adenovirus expressing ASK1, 24 hours. The method, then:
ASK1 (Apoptosis Signal-Regulating Kinase 1) 293 cell-based assay (Cellular EC50)
The cellular potency of compounds was assayed in cells stably expressing an AP-1: luciferase reporter construct (293/AP1-Luc cells—Panomics Inc., 6519 Dumbarton Circle, Fremont, Calif.). Cells were infected with an adenovirus expressing kinase active ASK1 (631-1381 of rat ASK1 cDNA), which will activate the AP-1 transcription factor and increase the expression of luciferase. Inhibitors of ASK1 will decrease the enzyme activity of ASK1 and therefore decrease the activity of AP-1 transcription factor and the expression of luciferase.
2. Reference Materials • 1. Panomics 293/AP1-Luc stable cell-line product insert. • 2. Promega Steady-Glo Luciferase Assay System product insert. 3. Media Required 3. Complete Growth Medium, “CGM” • a. DMEM (MediaTech) • b. 10% FBS • c. 1% PSG • d. 100 ug/mL HygromycinB 4. Assay Medium, “AM” • a. DMEM (Invitrogen) • b. 25 mM HEPES • c. 1 mM Sodium Pyruvate • d. 1% PSG 4. Methods Maintenance: • 1. 293/AP1-Luc Maintain 293/Acells per vendor's instructions; harvest cells at ˜80% confluence in T150 flasks as follows: • a. Aspirate media, wash gently with ˜12 mL sterile D-PBS, aspirate. • b. Add 5 mL Trypsin-EDTA, tilt gently to coat flask, and incubate ˜5 min. at 37° C. • c. […] Aspirate media from cell pellet, add 20 to 30 mL CGM, resuspend pellet by pipeting 6×, pass through cell strainer to disperse clumps (if necessary), and count cells with hemocytometer. Assay Day 1: 2. Harvest cells as above, except resuspend cell pellet. Count cells and dilute to 1.5×10^5 cells per mL; add adenovirus such that there are 5 infectious forming units per cell. 3. Prime (20 to 30 mL) and plate cells in Greiner poly-D-Lysine coated 384-well plates at 1.2×10^4 cells per well using BioTek uFill (80 uL per well). 4. Immediately dose plates with 0.4 uL of compound dose series (in 100% DMSO) incubate 24 hours in humidified incubator (37° C., 5% CO2). Assay Day 2: 5. Process plates (per manufacturer's instructions) as follows: • a. Set plates in laminar flow hood & uncover for 30 minutes at room temperature to cool. • b. Remove 60 uL of AM from assay wells • c. Add 20 uL per well Steady-Glo Firefly substrate, let sit for 10-20 minutes at room temperature • d. Cover bottom of assay plates with white backing tape. • e. Acquire data on a […] plate reader
(In general: Reporter assays use an easily measured gene product as a stand-in for the process of interest.)

[3] abbreviates: TR-FRET, 100 μM ATP, 4 nM ASK1 kinase, average of quadruplicate.
Where [4] appears, read: Compounds 6-17, same competitive TR-FRET immunoassay.

recombinant human ASK1 kinase, sequence (Q99683 whole entry): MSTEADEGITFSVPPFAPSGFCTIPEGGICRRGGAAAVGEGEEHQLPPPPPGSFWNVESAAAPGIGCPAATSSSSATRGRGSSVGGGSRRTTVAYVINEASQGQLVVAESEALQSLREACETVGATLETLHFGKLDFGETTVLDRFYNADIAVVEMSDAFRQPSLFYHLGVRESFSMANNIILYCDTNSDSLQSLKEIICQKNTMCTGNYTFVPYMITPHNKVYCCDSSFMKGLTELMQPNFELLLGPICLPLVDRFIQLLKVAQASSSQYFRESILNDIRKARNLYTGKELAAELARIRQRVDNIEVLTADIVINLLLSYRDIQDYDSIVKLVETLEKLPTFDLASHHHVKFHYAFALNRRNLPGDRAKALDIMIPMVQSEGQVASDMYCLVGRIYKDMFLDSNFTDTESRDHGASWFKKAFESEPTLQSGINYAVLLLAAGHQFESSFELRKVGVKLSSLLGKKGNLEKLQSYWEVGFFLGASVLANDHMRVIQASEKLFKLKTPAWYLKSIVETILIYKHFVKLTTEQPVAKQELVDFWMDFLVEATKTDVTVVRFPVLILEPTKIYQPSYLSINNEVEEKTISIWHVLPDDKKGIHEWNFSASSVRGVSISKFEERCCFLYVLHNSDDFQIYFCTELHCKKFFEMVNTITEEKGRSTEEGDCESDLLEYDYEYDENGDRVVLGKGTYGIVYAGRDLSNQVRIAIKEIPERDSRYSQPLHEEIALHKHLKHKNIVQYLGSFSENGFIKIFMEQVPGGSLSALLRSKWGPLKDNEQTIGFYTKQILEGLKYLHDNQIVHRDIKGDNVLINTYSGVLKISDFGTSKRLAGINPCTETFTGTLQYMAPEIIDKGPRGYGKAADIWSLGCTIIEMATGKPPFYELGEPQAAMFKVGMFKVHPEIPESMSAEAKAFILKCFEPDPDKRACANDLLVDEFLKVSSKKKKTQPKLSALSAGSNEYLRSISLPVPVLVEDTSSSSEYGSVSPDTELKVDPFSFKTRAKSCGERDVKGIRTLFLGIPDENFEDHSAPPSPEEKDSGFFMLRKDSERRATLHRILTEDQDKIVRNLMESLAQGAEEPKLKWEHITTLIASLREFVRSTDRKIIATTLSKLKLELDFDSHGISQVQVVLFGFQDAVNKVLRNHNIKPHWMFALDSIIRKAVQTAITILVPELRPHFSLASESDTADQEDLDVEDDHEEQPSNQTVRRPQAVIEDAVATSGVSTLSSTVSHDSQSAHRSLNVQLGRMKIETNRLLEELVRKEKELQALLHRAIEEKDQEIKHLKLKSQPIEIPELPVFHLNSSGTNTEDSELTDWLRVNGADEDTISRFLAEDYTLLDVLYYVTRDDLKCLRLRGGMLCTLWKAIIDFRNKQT
ASK1 (kinase active, 631-1381 of rat ASK1 cDNA) in 293/AP1-Luc cells, sequence (A0A8I6AEL0 1-1381): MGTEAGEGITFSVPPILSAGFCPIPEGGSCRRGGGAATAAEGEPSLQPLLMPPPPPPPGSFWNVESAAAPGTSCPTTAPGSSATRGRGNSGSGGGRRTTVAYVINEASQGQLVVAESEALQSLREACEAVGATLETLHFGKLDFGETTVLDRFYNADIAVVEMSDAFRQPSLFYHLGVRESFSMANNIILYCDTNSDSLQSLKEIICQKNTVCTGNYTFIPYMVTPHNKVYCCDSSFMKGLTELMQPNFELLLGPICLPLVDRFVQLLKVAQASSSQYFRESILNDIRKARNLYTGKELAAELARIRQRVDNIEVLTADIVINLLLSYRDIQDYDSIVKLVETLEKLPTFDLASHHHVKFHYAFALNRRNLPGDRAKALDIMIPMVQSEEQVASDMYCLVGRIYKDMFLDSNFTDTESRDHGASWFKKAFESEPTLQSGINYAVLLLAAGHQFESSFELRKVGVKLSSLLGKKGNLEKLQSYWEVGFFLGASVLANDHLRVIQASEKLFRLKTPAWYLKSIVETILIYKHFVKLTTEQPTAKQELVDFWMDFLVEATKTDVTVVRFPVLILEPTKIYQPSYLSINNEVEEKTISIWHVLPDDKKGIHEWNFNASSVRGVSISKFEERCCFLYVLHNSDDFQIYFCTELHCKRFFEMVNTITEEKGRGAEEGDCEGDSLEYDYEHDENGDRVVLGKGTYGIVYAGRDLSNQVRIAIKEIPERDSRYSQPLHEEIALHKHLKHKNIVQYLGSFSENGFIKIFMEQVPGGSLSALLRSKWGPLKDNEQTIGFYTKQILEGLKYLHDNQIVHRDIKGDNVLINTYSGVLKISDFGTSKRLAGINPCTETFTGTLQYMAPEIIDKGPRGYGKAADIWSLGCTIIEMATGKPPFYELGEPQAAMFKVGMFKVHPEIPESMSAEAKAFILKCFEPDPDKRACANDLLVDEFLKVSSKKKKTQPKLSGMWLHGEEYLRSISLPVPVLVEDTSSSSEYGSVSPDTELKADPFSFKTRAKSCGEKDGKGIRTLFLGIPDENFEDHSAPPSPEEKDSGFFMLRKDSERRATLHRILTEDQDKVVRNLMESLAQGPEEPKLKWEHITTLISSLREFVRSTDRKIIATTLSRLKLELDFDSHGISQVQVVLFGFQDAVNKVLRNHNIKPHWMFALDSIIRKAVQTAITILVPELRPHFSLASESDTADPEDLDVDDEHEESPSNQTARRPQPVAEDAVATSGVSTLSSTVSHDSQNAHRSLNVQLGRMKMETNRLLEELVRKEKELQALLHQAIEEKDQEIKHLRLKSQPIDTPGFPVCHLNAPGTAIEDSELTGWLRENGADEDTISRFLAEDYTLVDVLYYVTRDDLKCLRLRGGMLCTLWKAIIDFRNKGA

The pIC50 is the negative decadic logarithm of the IC50, by convention in mol/L. As usually defined, the pEC50 is the negative decadic logarithm of the EC50, by convention in mol/L. A high value points to a low EC50. Consider `O=C(Nc1csc(-c2nncn2C2CC2)n1)c1cc(-n2cnc(C3CC3)c2)c(N2CCOCC2)cn1` [Example 1, 4-(4-cyclopropyl-1H-imidazol-1-yl)-N-(2-(4-cyclopropyl-4H-1,2,4-triazol-3-yl)thiazol-4-yl)-5-morpholinopicolinamide], for which, in assay [1] (setting [3]), the pIC50 is 8.84. In addition, the negative-log EC50 (pEC50) in assay [2] is 7.88. With `CC1(O)CN(c2cnc(C(=O)Nc3csc(-c4nncn4C4CC4)n3)cc2-n2cnc(C3CC3)c2)C1` [Example 2, 4-(4-cyclopropyl-1H-imidazol-1-yl)-N-(2-(4-cyclopropyl-4H-1,2,4-triazol-3-yl)thiazol-4-yl)-5-(3-hydroxy-3-methylazetidin-1-yl)picolinamide], the negative-log IC50 (pIC50) in assay [1] (setting [3]) was 8.80. In assay [2], the pEC50 is 7.95.

On to `C[C@H](n1cnnc1-c1nc(NC(=O)c2cc(-n3cnc(C4CC4)c3)c(N3CCOCC3)cn2)cs1)C(F)(F)F` [Example 3, (S)-4-(4-cyclopropyl-1H-imidazol-1-yl)-5-morpholino-N-(2-(4-(1,1,1-trifluoropropan-2-yl)-4H-1,2,4-triazol-3-yl)thiazol-4-yl)picolinamide], for which the negative-log IC50 (pIC50) in assay [1] (setting [3]) is 8.58. Further, the negative-log EC50 (pEC50) in assay [2] was 8.17. The matching figures for `C[C@H](n1cnnc1-c1nc(NC(=O)c2cc(-n3cnc(C4CC4)c3)c(N3CC(C)(O)C3)cn2)cs1)C(F)(F)F` [Example 4, (S)-4-(4-cyclopropyl-1H-imidazol-1-yl)-5-(3-hydroxy-3-methylazetidin-1-yl)-N-(2-(4-(1,1,1-trifluoropropan-2-yl)-4H-1,2,4-triazol-3-yl)thiazol-4-yl)picolinamide]: 8.77 and 8.28.

As to `C[C@H](n1cnnc1-c1nc(NC(=O)c2cc(-n3cnc(C4CC4)c3)c(N(C)C)cn2)cs1)C(F)(F)F` [Example 5, (S)-4-(4-cyclopropyl-1H-imidazol-1-yl)-5-(dimethylamino)-N-(2-(4-(1,1,1-trifluoropropan-2-yl)-4H-1,2,4-triazol-3-yl)thiazol-4-yl)picolinamide], in assay [1] (setting [3]), the pIC50 is 8.73. Moreover, in assay [2], the pEC50 was 8.15. Take `O=C(Nc1csc(-c2nncn2C2CC2)n1)c1cc(-n2cnc(C3CC3)c2)c(N2CCC2)cn1` [Example 6, 5-(azetidin-1-yl)-4-(4-cyclopropylimidazol-1-yl)-N-[2-(4-cyclopropyl-1,2,4-triazol-3-yl)-1,3-thiazol-4-yl]pyridine-2-carboxamide]: the pIC50 in assay [1] (setting [4]) was 8.62. Same read-out and setting: the same measure for `C[C@H](n1cnnc1-c1nc(NC(=O)c2cc(-n3cnc(C4CC4)c3)c(N3CCC3)cn2)cs1)C(F)(F)F` [Example 7, (S)-5-(azetidin-1-yl)-4-(4-cyclopropyl-1H-imidazol-1-yl)-N-(2-(4-(1,1,1-trifluoropropan-2-yl)-4H-1,2,4-triazol-3-yl)thiazol-4-yl)picolinamide]: 8.77; for `C[C@H](n1cnnc1-c1nc(NC(=O)c2cc(-n3cnc(C4CC4)c3)c(N3CCCC3)cn2)cs1)C(F)(F)F` [Example 8, (S)-4-(4-cyclopropyl-1H-imidazol-1-yl)-5-(pyrrolidin-1-yl)-N-(2-(4-(1,1,1-trifluoropropan-2-yl)-4H-1,2,4-triazol-3-yl)thiazol-4-yl)picolinamide]: 8.66; for `O=C(Nc1csc(-c2nncn2C2CC2)n1)c1cc(-n2cnc(C3CC3)c2)c(N2CCCC2)cn1` [Example 9, 4-(4-cyclopropylimidazol-1-yl)-N-[2-(4-cyclopropyl-1,2,4-triazol-3-yl)-1,3-thiazol-4-yl]-5-pyrrolidin-1-ylpyridine-2-carboxamide]: 8.72.

As for `O=C(Nc1csc(-c2nncn2C2CC2)n1)c1cc(-n2cnc(C3CC3)c2)c(N2CCC(O)C2)cn1` (stereo not shown) [Example 10, 4-(4-cyclopropylimidazol-1-yl)-N-[2-(4-cyclopropyl-1,2,4-triazol-3-yl)-1,3-thiazol-4-yl]-5-(3-hydroxypyrrolidin-1-yl)pyridine-2-carboxamide], the pIC50 in assay [1] (setting [4]) was 8.52.

As to `C[C@H](n1cnnc1-c1nc(NC(=O)c2cc(-n3cnc(C4CC4)c3)c(N3CCC(O)C3)cn2)cs1)C(F)(F)F` (stereo partly drawn) [Example 11, 4-(4-cyclopropyl-1H-imidazol-1-yl)-5-(3-hydroxypyrrolidin-1-yl)-N-(2-(4-((S)-1,1,1-trifluoropropan-2-yl)-4H-1,2,4-triazol-3-yl)thiazol-4-yl)picolinamide], the pIC50 in assay [1] (setting [4]) is 8.66. Turning to `O=C(Nc1csc(-c2nncn2C2CC2)n1)c1cc(-n2cnc(C3CC3)c2)c(N2CCCCC2)cn1` [Example 12, 4-(4-cyclopropylimidazol-1-yl)-N-[2-(4-cyclopropyl-1,2,4-triazol-3-yl)-1,3-thiazol-4-yl]-5-piperidin-1-ylpyridine-2-carboxamide], the pIC50 in assay [1] (setting [4]) is 8.70. With `C[C@H](n1cnnc1-c1nc(NC(=O)c2cc(-n3cnc(C4CC4)c3)c(N3CCCCC3)cn2)cs1)C(F)(F)F` [Example 13, (S)-4-(4-cyclopropyl-1H-imidazol-1-yl)-5-(piperidin-1-yl)-N-(2-(4-(1,1,1-trifluoropropan-2-yl)-4H-1,2,4-triazol-3-yl)thiazol-4-yl)picolinamide], the pIC50 in assay [1] (setting [4]) is 9.15. On to `C[C@H](n1cnnc1-c1nc(NC(=O)c2cc(-n3cnc(C4CC4)c3)c(N3CCC(C)(O)CC3)cn2)cs1)C(F)(F)F` [Example 14, (S)-4-(4-cyclopropyl-1H-imidazol-1-yl)-5-(4-hydroxy-4-methylpiperidin-1-yl)-N-(2-(4-(1,1,1-trifluoropropan-2-yl)-4H-1,2,4-triazol-3-yl)thiazol-4-yl)picolinamide], for which, in assay [1] (setting [4]), the pIC50 is 8.74.

With `CC1(O)CCN(c2cnc(C(=O)Nc3csc(-c4nncn4C4CC4)n3)cc2-n2cnc(C3CC3)c2)CC1` [Example 15, 4-(4-cyclopropylimidazol-1-yl)-N-[2-(4-cyclopropyl-1,2,4-triazol-3-yl)-1,3-thiazol-4-yl]-5-(4-hydroxy-4-methylpiperidin-1-yl)pyridine-2-carboxamide], in assay [1] (setting [4]), the pIC50 was 8.60. Take `C[C@H](n1cnnc1-c1nc(NC(=O)c2cc(-n3cnc(C4CC4)c3)c(N3CCN(C)CC3)cn2)cs1)C(F)(F)F` [Example 16, (S)-4-(4-cyclopropyl-1H-imidazol-1-yl)-5-(4-methylpiperazin-1-yl)-N-(2-(4-(1,1,1-trifluoropropan-2-yl)-4H-1,2,4-triazol-3-yl)thiazol-4-yl)picolinamide]: in assay [1] (setting [4]), the negative logarithm of the IC50 (pIC50) was 8.68. Take `CN1CCN(c2cnc(C(=O)Nc3csc(-c4nncn4C4CC4)n3)cc2-n2cnc(C3CC3)c2)CC1` [Example 17, 4-(4-cyclopropylimidazol-1-yl)-N-[2-(4-cyclopropyl-1,2,4-triazol-3-yl)-1,3-thiazol-4-yl]-5-(4-methylpiperazin-1-yl)pyridine-2-carboxamide]: in assay [1] (setting [4]), the negative logarithm of the IC50 (pIC50) was 8.51.
